This is an account of results in patent publication US10421768B2, “Method of biotransformation of benzopyrone compounds into the corresponding phosphate-conjugated derivatives” (National Taiwan University, priority 2016, dated 2019).

≈ marks a conversion by molar mass, not a printed value. Read-outs that look alike come from different tables or passages of the source.

For data set [1] the following is noted: cited from earlier work; for solubility in water (in words): qualitative statement (b7: according to Merck Index); for water solubility relative to aglyconic form of isoflavones: derivatives reported in several studies; for solubility: in water, stated in text without method.
A short description of data set [2]: Solubility of isoflavone phosphate conjugates and aglycones in DI water (25° C.). The class given is physicochemical. The settings on record: for solubility relative to genistein and daidzein: 25° C. water, phosphate vs aglycone; for Solubility enhancement ratio: phosphate conjugate vs aglycone. An excerpt: This can increase the application of isoflavones in pharmaceuticals, food, and cosmetics.

The mark [3] stands for this setting: DI water, 25° C., read-out: Water solubility.

On to `O=c1c(O)c(-c2ccc(O)cc2)oc2cc(O)cc(O)c12` [Kaempferol, kaempferol], for which the “solubility in water (in words)” value in data set [1] is given as “barely insoluble in water”.
Consider `O=c1c(-c2ccc(O)cc2)coc2c(O)c(O)cc(O)c12` [8-hydroxy genistein], for which the “water solubility relative to aglyconic form of isoflavones” value in data set [1] is “higher water solubility”.
Take `O=c1c(-c2ccc(O)cc2)coc2cc(O)c(O)c(O)c12` [6-hydroxy genistein]: the “water solubility relative to aglyconic form of isoflavones” value in data set [1] is listed as “higher water solubility”.
With `O=c1c(-c2ccc(O)cc2)coc2cc(OP(=O)(O)O)cc(O)c12` [Genistein-7-O-phosphate, genistein-7-O-phosphate], the “solubility relative to genistein and daidzein” value in data set [2] is “ten million times higher”. The solubility in data set [2] (setting [3]) came to 100000 µg/mL (≈ 286000 µM). Further, the Solubility enhancement ratio in data set [2] (DI water, 25° C.) is reported as 1.2 × 10^5.
Turning to `O=C1C[C@@H](c2ccc(O)cc2)Oc2cc(O)cc(O)c21` [Naringenin, naringenin], the solubility in data set [1] was 45 µg/mL (≈ 165 µM).
Regarding `O=c1c(O)c(-c2ccc(O)c(O)c2)oc2cc(O)cc(O)c12` [quercetin], in data set [1], the “solubility in water (in words)” value is “barely insoluble in water”.
On to `O=c1c(-c2ccc(O)cc2)coc2cc(OS(=O)(=O)O)ccc12` [daidzein-7-O-sulfate], for which, in data set [1], the “water solubility relative to aglyconic form of isoflavones” value is listed as “higher water solubility”.
Take `O=c1c(-c2ccc(O)cc2)coc2cc(O)ccc12` [Daidzein, daidzein]: the solubility is 1.36 µg/mL (≈ 5.35 µM) in data set [2] (25 °C, water) and 8.2 µg/mL (≈ 32.3 µM) in data set [1]. The “solubility in water (in words)” value in data set [1] is on record as “practically insoluble in water”.
Take `O=c1c(-c2ccc(O)cc2O)coc2cc(O)cc(O)c12` [2′-hydroxy genistein]: the “water solubility relative to aglyconic form of isoflavones” value in data set [1] was “higher water solubility”.
Regarding `O=c1c(-c2ccc(O)cc2)coc2cc(OP(=O)(O)O)ccc12` [Daidzein-7-O-phosphate, daidzein-7-O-phosphate], the “solubility relative to genistein and daidzein” value in data set [2] is “ten million times higher”. The solubility in data set [2] (setting [3]) worked out at 179000 µg/mL (≈ 536000 µM). In addition, the Solubility enhancement ratio in data set [2] (DI water, 25° C.) is given as 1.3 × 10^5.
In the case of `O=c1c(-c2ccc(O)cc2)coc2cc(O)cc(O)c12` [Genistein, genistein], the solubility is 0.82 µg/mL (≈ 3.03 µM) in data set [2] (setting [3]) and 0.8 µg/mL (≈ 2.96 µM) in data set [1]. For the same compound, in data set [1], the “solubility in water (in words)” value is recorded as “practically insoluble in water”.
Turning to `COc1ccc([C@@H]2CC(=O)c3c(O)cc(O)cc3O2)cc1O` [hesperetin], the solubility in data set [1] was 1.4 µg/mL (≈ 4.63 µM).

Broadly, the solubility is how much of the substance goes into solution per volume.
